From ChEMBL document CHEMBL4364288, “Discovery of carbazole derivatives as novel allosteric MEK inhibitors by pharmacophore modeling and virtual screening” (Eur J Med Chem, 2019)

Columns and labels:
Homo sapiens [1] = organism: Homo sapiens; details: at 20 µM
Description: Inhibition of GST-tagged MEK1/ERK2 (unknown origin) cascading pathway assessed as reduction in ERK2 phosphorylation at 20 uM incubated for 2 hrs by HTRF assay relative to control

Sf21 [2] = details: Homo sapiens, at 20 µM
Description: Inhibition of recombinant N-terminal GST-tagged human BRAF (433-726 residues) expressed in baculovirus infected sf21 insect cells/recombinant human full length N-terminal GST-tagged MEK1 expressed in Escherichia coli cascading pathway assessed as reduction in MEK1 phosphorylation at 20 uM incubated for 2 hrs by HTRF assay relative to control

Homo sapiens [3] = organism: Homo sapiens; details: at 2 µM
Description: Inhibition of GST-tagged MEK1/ERK2 (unknown origin) cascading pathway assessed as reduction in ERK2 phosphorylation at 2 uM incubated for 2 hrs by HTRF assay relative to control

A-375 = test: cells; type: functional, cell-based; details: Homo sapiens, A-375, 72 h
Description: Antiproliferative activity against human A375 cells assessed as cell viability incubated for 72 hrs by cell titer-glo luminescent cell viability assay (Rvb = > 100 uM)

A549 = test: cells; type: functional, cell-based; details: Homo sapiens, A549, 72 h
Sf21 [4] = details: Homo sapiens, at 2 µM
Description: Inhibition of recombinant N-terminal GST-tagged human BRAF (433-726 residues) expressed in baculovirus infected sf21 insect cells/recombinant human full length N-terminal GST-tagged MEK1 expressed in Escherichia coli cascading pathway assessed as reduction in MEK1 phosphorylation at 2 uM incubated for 2 hrs by HTRF assay relative to control

HEK293 = test: cells; type: ADME, cell-based; details: Homo sapiens, HEK293, 72 h
HL-60 = test: cells; type: functional, cell-based; details: Homo sapiens, HL-60, 72 h
[5] = Inhibition of GST-tagged MEK1/ERK2 (unknown origin) cascading pathway assessed as reduction in ERK2 phosphorylation incubated for 2 hrs by HTRF assay relative to control; parameters: species or system Homo sapiens
[6] = molecular target: Dual specificity mitogen-activated protein kinase kinase 1 (Homo sapiens) (UniProt Q02750); test: Inhibition of recombinant full length GST-tagged human MEK1 expressed in baculovirus infected sf9 insect cells at 2 uM measured after 30 to 90 mins by HTRF based Lanthascreen Eu kinase binding assay relative to AZD6244
Sequence of Dual specificity mitogen-activated protein kinase kinase 1 (Homo sapiens) (Q02750 whole entry): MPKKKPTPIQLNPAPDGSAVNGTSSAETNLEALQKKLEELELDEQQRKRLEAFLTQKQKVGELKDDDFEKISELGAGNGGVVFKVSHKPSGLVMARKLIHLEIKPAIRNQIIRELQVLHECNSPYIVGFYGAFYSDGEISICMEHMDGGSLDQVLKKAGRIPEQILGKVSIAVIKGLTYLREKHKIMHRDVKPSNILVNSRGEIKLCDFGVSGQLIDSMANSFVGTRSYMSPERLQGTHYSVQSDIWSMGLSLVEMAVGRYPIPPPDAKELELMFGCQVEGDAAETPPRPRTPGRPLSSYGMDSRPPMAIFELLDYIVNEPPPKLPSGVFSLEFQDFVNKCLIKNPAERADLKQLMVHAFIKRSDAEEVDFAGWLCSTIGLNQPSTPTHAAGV

[7] = molecular target: Dual specificity mitogen-activated protein kinase kinase 1 (Homo sapiens) (UniProt Q02750); test: Inhibition of recombinant full length GST-tagged human MEK1 expressed in baculovirus infected sf9 insect cells at 20 uM measured after 30 to 90 mins by HTRF based Lanthascreen Eu kinase binding assay relative to AZD6244
[8] = Inhibition of BRAF/MEK1 (unknown origin) cascading pathway assessed as reduction in MEK1 phosphorylation incubated for 2 hrs in presence of 300 uM ATP by HTRF assay; parameters: species or system Homo sapiens
[9] = Inhibition of BRAF/MEK1 (unknown origin) cascading pathway assessed as reduction in MEK1 phosphorylation incubated for 2 hrs in presence of 100 uM ATP by HTRF assay; parameters: species or system Homo sapiens

inhibition (Homo sapiens [1]) [%] | IC50 (A-375) [µM] | IC50 (A549) [µM] | IC50 (HL-60) [µM] | Compound | inhibition (Sf21 [2]) [%] | IC50 (HEK293) [µM] | other results
27.9 |  |  |  | Cc1ccc(S(=O)(=O)Nc2cc(OCC(N)=O)cc3c2[nH]c2ccccc23)cc1 | 41.9 |  | 
37.8 |  |  |  | Cc1ccc(S(=O)(=O)Nc2cc(OCc3nc(C)no3)cc3c2[nH]c2ccccc23)cc1 | 38.2 |  | 
35.6 | 14.7 | 12.8 | 26.3 | Cc1ccc(S(=O)(=O)Nc2cc(SCC(=O)O)c(O)c3c2[nH]c2ccccc23)cc1 | 43.7 | > 100 | 
39.2 |  |  |  | CCOC(=O)CSc1cc(NS(=O)(=O)c2ccc(C)cc2)c2[nH]c3ccccc3c2c1 | 45.2 |  | 
20.6 | 43.7 | > 100 | > 100 | CC(=O)Nc1ccc(S(=O)(=O)Nc2cc(OCc3nnc(C)o3)cc3c2[nH]c2ccccc23)cc1 | 50.7 | > 100 | 
35.5 |  |  |  | Cc1ccc(S(=O)(=O)Nc2cc(S(=O)(=O)CC(=O)O)cc3c2[nH]c2ccccc23)cc1 | 45 |  | 
32 | 7.7 | 21.6 | 17.2 | Cc1ccc(S(=O)(=O)Nc2cc(SCC(=O)O)c(O)c3ccccc23)cc1 | 56.1 | 8.9 | IC50 [5]: > 160 µM; inhibition (Homo sapiens [3]): 3.9%; inhibition [6]: 32.1%; inhibition [7]: 90.3%; inhibition (Sf21 [4]): 4.4%
21.8 |  |  |  | CCOC(=O)CSc1cc(NS(=O)(=O)c2ccc(NC(C)=O)cc2)c2[nH]c3ccccc3c2c1 | 35.8 |  | 
35 |  |  |  | COc1cc(/C=C2\C(=O)NN(c3ccc(I)cc3)C2=O)ccc1OC(C)=O | 57 |  | IC50 [5]: 63.1 µM; inhibition (Homo sapiens [3]): 5.1%; inhibition [6]: 11.9%; inhibition [7]: 60.1%; inhibition (Sf21 [4]): 6.3%
27.7 |  |  |  | CC(=O)Nc1ccc(S(=O)(=O)Nc2cc(SCC(=O)O)cc3c2[nH]c2ccccc23)cc1 | 44.2 |  | 
45.1 |  |  |  | Cc1ccc(S(=O)(=O)Nc2cc(OCc3nnn[nH]3)cc3c2[nH]c2ccccc23)cc1 | 46.8 |  | 
21.5 | > 100 | > 100 | > 100 | Cc1ccc(S(=O)(=O)Nc2cc(OCC(=O)O)cc3c2[nH]c2ccccc23)cc1 | 65.8 | > 100 | IC50 [8]: 12.1 µM; IC50 [9]: 13.2 µM
25.8 |  |  |  | Cc1ccc(S(=O)(=O)Nc2cc(OCc3nnc(C)o3)cc3c2[nH]c2ccccc23)cc1 | 48.6 |  | 
21.4 |  |  |  | Cc1ccc(S(=O)(=O)Nc2cc(OCc3nnc(N)o3)cc3c2[nH]c2ccccc23)cc1 | 33 |  | 
21.4 | > 100 | > 100 | > 100 | Cc1ccc(S(=O)(=O)Nc2cc(SCC(=O)O)cc3c2[nH]c2ccccc23)cc1 | 67.2 | > 100 | 
18.2 |  |  |  | CCOC(=O)COc1cc(NS(=O)(=O)c2ccc(NC(C)=O)cc2)c2[nH]c3ccccc3c2c1 | 27.4 |  | 
-10 |  |  |  | CC(=O)Nc1cccc(S(=O)(=O)Nc2cc(OCc3nnc(C)o3)cc3c2[nH]c2ccccc23)c1 | 29.5 |  | 
28.9 | 70.7 | 70.7 | > 100 | CCOC(=O)COc1cc(NS(=O)(=O)c2ccc(C)cc2)c2[nH]c3ccccc3c2c1 | 56.6 | > 100 | 

Compound | inhibition (Homo sapiens [1]) [%] | IC50 (A-375) [µM] | IC50 (A549) [µM] | IC50 (HL-60) [µM] | inhibition (Sf21 [2]) [%] | IC50 (HEK293) [µM] | other results
N#CC(=C(/N)Sc1ccccc1N)/C(C#N)=C(\N)Sc1ccccc1N | 80.9 | 1.1 | 32.2 |  | 87.4 |  | inhibition (Homo sapiens [3]): 26.9%; inhibition (Sf21 [4]): 41.7%
